The results in this text go back to ChEMBL document CHEMBL3608255 (ACS Med Chem Lett, 2015).

SMILES strings stand for the structures.

Assay [1] addresses Bromodomain-containing protein 4 (Homo sapiens, UniProt O60885). In words: Binding affinity to BRD4 (unknown origin) expressed in Escherichia coli BL21 after 1 hr by proprietary competition assay.
For assay [2], the system named is MV4-11. In words: Cytotoxicity against human MV4-11 cells after 24 hrs by CellTiter-Blue assay. Format: functional. Particulars: MV4-11, 24 h. On the technique in general: The colour change of resazurin is a common sign of viable cells or microbes.
Assay [3] concerns the target Serine/threonine-protein kinase PLK1 (Homo sapiens, UniProt P53350). In words: Binding affinity to PLK1 (unknown origin) expressed in HEK293 cells after 1 hr by proprietary competition assay. Format: cell-based.

Chain of Serine/threonine-protein kinase PLK1 (P53350 whole entry): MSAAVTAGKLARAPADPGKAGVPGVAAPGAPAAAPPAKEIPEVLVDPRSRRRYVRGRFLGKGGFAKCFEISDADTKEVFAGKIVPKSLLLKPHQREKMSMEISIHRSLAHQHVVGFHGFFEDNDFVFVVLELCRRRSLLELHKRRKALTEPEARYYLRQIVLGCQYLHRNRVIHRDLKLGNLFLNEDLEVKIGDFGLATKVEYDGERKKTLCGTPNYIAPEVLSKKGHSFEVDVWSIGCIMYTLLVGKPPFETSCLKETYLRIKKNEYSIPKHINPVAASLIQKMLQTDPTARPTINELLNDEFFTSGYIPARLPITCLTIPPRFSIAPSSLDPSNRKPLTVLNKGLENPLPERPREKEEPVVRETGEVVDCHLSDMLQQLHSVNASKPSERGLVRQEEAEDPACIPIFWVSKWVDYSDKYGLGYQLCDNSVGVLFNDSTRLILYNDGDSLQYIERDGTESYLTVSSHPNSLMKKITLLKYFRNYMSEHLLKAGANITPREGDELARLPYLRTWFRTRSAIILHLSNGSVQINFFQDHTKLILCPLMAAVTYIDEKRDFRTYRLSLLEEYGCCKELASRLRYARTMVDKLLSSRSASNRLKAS

The Ki is the dissociation constant of the complex between target and ligand, obtained from inhibition or displacement. In general, GI50 refers to the concentration that inhibits growth by half. Lower therefore signals more potent growth inhibition. For `CC[C@@H]1C(=O)N(C)c2cnc(Nc3ccc(C(=O)NC4CCN(C)CC4)cc3)nc2N1C1CCCC1`, in assay [1], the Ki came out at 60 nM. For the same compound, the GI50 in assay [2] is 3 nM.
On the same counts, the results for `COc1cc(C(=O)NC2CCN(C)CC2)ccc1Nc1ncc2c(n1)N(C1CCCC1)CC(=O)N2C` are 1400 nM and 219 nM.
The compound `CC[C@@H]1C(=O)N(C)c2cnc(Nc3ccc(C(=O)NC4CCN(C)CC4)cc3OC)nc2N1C1CCCC1` [BI-2536] gave a GI50 in assay [2] of 15.2 nM.
Turning to `CC[C@@H]1C(=O)N(CC(C)C)c2cnc(Nc3ccc(C(=O)NC4CCN(C)CC4)cc3OC)nc2N1C1CCCC1`, in assay [1], the Ki is more than 10000 nM. For the same compound, in assay [2], the GI50 was determined as 2530 nM.
Turning to `COc1cc(C(=O)NC2CCN(C)CC2)ccc1Nc1ncc2c(n1)N(C1CCCC1)[C@H](Cc1ccccc1)C(=O)N2C`, the Ki was more than 10000 nM in assay [1] and 4.2 nM in assay [3]. The compound further showed a GI50 in assay [2] of 1870 nM.
The compound `C[C@@H](Oc1cc(-n2cnc3ccc(CN4CCN(C)CC4)cc32)sc1C(N)=O)c1ccccc1C(F)(F)F` [GSK-461364] returned a GI50 in assay [2] of 679 nM.
The compound `CC[C@@H]1C(=O)N(C)c2cnc(Nc3ccc(C(=O)NC4CCN(C)CC4)cc3OCc3ccccc3)nc2N1C1CCCC1` registered a Ki in assay [1] of 100 nM. Moreover, in assay [2], the GI50 was found to be 356 nM.
Taken in the same sequence, the figures for `CC[C@@H]1C(=O)Nc2cnc(Nc3ccc(C(=O)NC4CCN(C)CC4)cc3OC)nc2N1C1CCCC1` were 7950 nM and 219 nM.
Compound `CC[C@@H]1C(=O)N(C(C)C)c2cnc(Nc3ccc(C(=O)NC4CCN(C)CC4)cc3OC)nc2N1C1CCCC1` came in with a Ki in assay [1] of 4500 nM. The compound further gave a GI50 in assay [2] of 2670 nM.
`CC[C@@H]1C(=O)N(C)c2cnc(Nc3ccc(C(=O)NC4CCN(C)CC4)cc3OC3CCCC3)nc2N1C1CCCC1`: the Ki in assay [1] is 27 nM; in assay [3], 0.84 nM. Halving of growth in assay [2] (GI50) required 240 nM.
`CC[C@@H]1C(=O)N(C)c2cnc(Nc3ccc(C(=O)NC4CCN(C)CC4)cc3OC)nc2N1CC(C)C`: the Ki in assay [1] stood at 970 nM; in assay [3], 6.95 nM. Also, growth in assay [2] was halved (GI50) at 40 nM.
Take `CC[C@@H]1C(=O)N(C)c2cnc(Nc3ccc(C(=O)NC4CCN(C)CC4)cc3OC)nc2N1Cc1cccc(Br)c1`: the Ki in assay [1] was found to be 8.7 nM; in assay [3] it was 5.8 nM. In assay [2], the GI50 is 675 nM.
Consider `CC[C@@H]1C(=O)N(Cc2ccccc2)c2cnc(Nc3ccc(C(=O)NC4CCN(C)CC4)cc3OC)nc2N1C1CCCC1`, for which, in assay [1], the Ki was more than 10000 nM. This compound also yielded a GI50 in assay [2] of 7280 nM.
Consider `CC[C@@H]1C(=O)N(CC)c2cnc(Nc3ccc(C(=O)NC4CCN(C)CC4)cc3OC)nc2N1C1CCCC1`, for which the Ki came out at 470 nM in assay [1] and 0.91 nM in assay [3]. Further, the GI50 in assay [2] was 392 nM.
In assay [2], `Cc1sc2c(c1C)C(c1ccc(Cl)cc1)=N[C@@H](CC(=O)OC(C)(C)C)c1nnc(C)n1-2` displayed a GI50 of 80 nM.
Take `CC[C@@H]1C(=O)N(C)c2cnc(Nc3ccc(C(=O)NC4CCN(C)CC4)c(OC)c3)nc2N1C1CCCC1`: the inhibitory constant (Ki) amounted to 37 nM in assay [1] and 0.52 nM in assay [3]. Besides, the GI50 in assay [2] was determined as 15 nM.
For `CC[C@@H]1C(=O)N(C)c2cnc(Nc3ccc(C(=O)NC4CCN(C)CC4)cc3F)nc2N1C1CCCC1`, the Ki in assay [1] was 46 nM. The GI50 in assay [2] worked out at 4 nM.
On to `CC[C@H]1C(=O)N(C)c2cnc(Nc3ccc(C(=O)NC4CCN(C)CC4)cc3OC)nc2N1C1CCCC1`, for which, in assay [2], the GI50 is 19 nM.
As to `CC[C@@H]1C(=O)N(C)c2cnc(Oc3ccc(C(=O)NC4CCN(C)CC4)cc3OC)nc2N1C1CCCC1`, the Ki in assay [1] came to 99 nM; in assay [3], 240 nM. In assay [2], this compound registered a GI50 of 1340 nM.
In assay [1], `CC[C@@H]1C(=O)N(C)c2cnc(Nc3ccc(C(=O)NC4CCN(C)CC4)cc3OCC(C)C)nc2N1C1CCCC1` gave a Ki of 29 nM. The compound further registered a GI50 in assay [2] of 154 nM.
